Data as given in ChEMBL document CHEMBL1697731, “Cheminformatics analysis of assertions mined from literature that describe drug-induced liver injury in different species” (Chem Res Toxicol, 2010).

Key:
[1] = tested on: Hepatotoxicity; assay: Literature-mined compound from Fourches et al multi-species drug-induced liver injury (DILI) dataset, effect in non-rodents
[2] = tested on: Hepatotoxicity; assay: Literature-mined compound from Fourches et al multi-species drug-induced liver injury (DILI) dataset, effect in humans; conditions: human
[3] = tested on: Hepatotoxicity; assay: Literature-mined compound from Fourches et al multi-species drug-induced liver injury (DILI) dataset, effect in rodents; conditions: rodentia

| Structure (SMILES) | Hepatotoxicity [1] | Hepatotoxicity [2] | Hepatotoxicity [3] | Hepatotoxicity ([1]; Liver) | Hepatotoxicity ([2]; Liver) | Hepatotoxicity ([3]; Liver) |
| --- | --- | --- | --- | --- | --- | --- |
| C[C@H]1C[C@H]2[C@@H]3CCC4=CC(=O)C=C[C@]4(C)[C@@]3(F)[C@@H](O)C[C@]2(C)[C@@]1(O)C(=O)CO [BETAMETHASONE] | no drug-induced liver injury reported | no drug-induced liver injury reported | drug-induced liver injury reported |  |  |  |
| C=C(C)[C@@H]1CC[C@]2(C(=O)O)CC[C@]3(C)[C@H](CC[C@@H]4[C@@]5(C)CC[C@H](O)C(C)(C)[C@@H]5CC[C@]43C)[C@@H]12 [BETULINIC ACID] | no drug-induced liver injury reported | drug-induced liver injury reported | no drug-induced liver injury reported |  |  |  |
| CC(C)(Oc1ccc(CCNC(=O)c2ccc(Cl)cc2)cc1)C(=O)O [BEZAFIBRATE] | no drug-induced liver injury reported | drug-induced liver injury reported | drug-induced liver injury reported |  |  |  |
| CC(O)(CS(=O)(=O)c1ccc(F)cc1)C(=O)Nc1ccc(C#N)c(C(F)(F)F)c1 (stereo unspecified) [BICALUTAMIDE] | no drug-induced liver injury reported | drug-induced liver injury reported | no drug-induced liver injury reported |  |  |  |
| c1ccc(-c2ccc(C(c3ccccc3)n3ccnc3)cc2)cc1 (stereo unspecified) [BIFONAZOLE] | no drug-induced liver injury reported | no drug-induced liver injury reported | drug-induced liver injury reported |  |  |  |
| O=C(O)CCCC[C@@H]1SC[C@@H]2NC(=O)N[C@@H]21 [BIOTIN] | no drug-induced liver injury reported | drug-induced liver injury reported | no drug-induced liver injury reported |  |  |  |
| CC(C)NCC(O)COc1ccc(COCCOC(C)C)cc1 (stereo unspecified) [BISOPROLOL] | no drug-induced liver injury reported | drug-induced liver injury reported | no drug-induced liver injury reported |  |  |  |
| CC(C)C[C@H](NC(=O)[C@H](Cc1ccccc1)NC(=O)c1cnccn1)B(O)O [BORTEZOMIB] |  |  |  | no drug-induced liver injury reported | drug-induced liver injury reported | drug-induced liver injury reported |
| COc1ccccc1Oc1c(NS(=O)(=O)c2ccc(C(C)(C)C)cc2)nc(-c2ncccn2)nc1OCCO [BOSENTAN] | drug-induced liver injury reported | drug-induced liver injury reported | drug-induced liver injury reported |  |  |  |
| Nc1c(CC(=O)O)cccc1C(=O)c1ccc(Br)cc1 [BROMFENAC] | no drug-induced liver injury reported | drug-induced liver injury reported | no drug-induced liver injury reported |  |  |  |
| CC(C)C(Br)C(=O)NC(N)=O (stereo unspecified) [BROMISOVALUM] | no drug-induced liver injury reported | drug-induced liver injury reported | drug-induced liver injury reported |  |  |  |
| CC(C)C[C@H]1C(=O)N2CCC[C@H]2[C@]2(O)O[C@](NC(=O)[C@@H]3C=C4c5cccc6[nH]c(Br)c(c56)C[C@H]4N(C)C3)(C(C)C)C(=O)N12 [BROMOCRIPTINE] | no drug-induced liver injury reported | no drug-induced liver injury reported | drug-induced liver injury reported |  |  |  |
| Cc1nnc2n1-c1sc(Br)cc1C(c1ccccc1Cl)=NC2 [BROTIZOLAM] | no drug-induced liver injury reported | no drug-induced liver injury reported | drug-induced liver injury reported |  |  |  |
| CCCC(=O)Nc1ncnc2c1ncn2[C@@H]1O[C@@H]2COP(=O)(O)O[C@H]2[C@H]1OC(=O)CCC [BUCLADESINE] | drug-induced liver injury reported | drug-induced liver injury reported | drug-induced liver injury reported |  |  |  |
| CCCC1O[C@@H]2C[C@H]3[C@@H]4CCC5=CC(=O)C=C[C@]5(C)[C@H]4[C@@H](O)C[C@]3(C)[C@]2(C(=O)CO)O1 (stereo partly specified) [BUDESONIDE] | no drug-induced liver injury reported | drug-induced liver injury reported | drug-induced liver injury reported |  |  |  |
| CCCCNc1cc(C(=O)O)cc(S(N)(=O)=O)c1Oc1ccccc1 [BUMETANIDE] | drug-induced liver injury reported | no drug-induced liver injury reported | no drug-induced liver injury reported |  |  |  |
| CCCCN1CCCCC1C(=O)Nc1c(C)cccc1C (stereo unspecified) [BUPIVACAINE] | no drug-induced liver injury reported | no drug-induced liver injury reported | drug-induced liver injury reported |  |  |  |
| CO[C@]12CC[C@@]3(C[C@@H]1[C@](C)(O)C(C)(C)C)[C@H]1Cc4ccc(O)c5c4[C@@]3(CCN1CC1CC1)[C@H]2O5 [BUPRENORPHINE] | no drug-induced liver injury reported | drug-induced liver injury reported | drug-induced liver injury reported |  |  |  |
| CC(NC(C)(C)C)C(=O)c1cccc(Cl)c1 (stereo unspecified) [BUPROPION] | no drug-induced liver injury reported | drug-induced liver injury reported | no drug-induced liver injury reported |  |  |  |

| Structure (SMILES) | Hepatotoxicity [1] | Hepatotoxicity [2] | Hepatotoxicity [3] | Hepatotoxicity ([1]; Liver) | Hepatotoxicity ([2]; Liver) | Hepatotoxicity ([3]; Liver) |
| --- | --- | --- | --- | --- | --- | --- |
| O=C1CC2(CCCC2)CC(=O)N1CCCCN1CCN(c2ncccn2)CC1 [BUSPIRONE] | no drug-induced liver injury reported | drug-induced liver injury reported | no drug-induced liver injury reported |  |  |  |
| CS(=O)(=O)OCCCCOS(C)(=O)=O [BUSULFAN] | no drug-induced liver injury reported | drug-induced liver injury reported | drug-induced liver injury reported |  |  |  |
| CCCCOCN(C(=O)CCl)c1c(CC)cccc1CC [BUTACHLOR] | no drug-induced liver injury reported | no drug-induced liver injury reported | drug-induced liver injury reported |  |  |  |
| C=CCC1(CC(C)C)C(=O)NC(=O)NC1=O [BUTALBITAL] | no drug-induced liver injury reported | drug-induced liver injury reported | no drug-induced liver injury reported |  |  |  |
| CCCCC1(CC)C(=O)NC(=O)NC1=O [BUTETHAL] | no drug-induced liver injury reported | no drug-induced liver injury reported | drug-induced liver injury reported |  |  |  |
| Cn1c(=O)c2c(ncn2C)n(C)c1=O [CAFFEINE] | no drug-induced liver injury reported | drug-induced liver injury reported | drug-induced liver injury reported |  |  |  |
| C=C1/C(=C\C=C2/CCC[C@]3(C)[C@@H]([C@H](C)CCCC(C)(C)O)CC[C@@H]23)C[C@@H](O)C[C@@H]1O [CALCITRIOL] | no drug-induced liver injury reported | drug-induced liver injury reported | drug-induced liver injury reported |  |  |  |
| CC[C@@]1(O)C(=O)OCc2c1cc1n(c2=O)Cc2cc3ccccc3nc2-1 [CAMPTOTHECIN] | no drug-induced liver injury reported | drug-induced liver injury reported | drug-induced liver injury reported |  |  |  |
| CCOc1nc2cccc(C(=O)OC(C)OC(=O)OC3CCCCC3)c2n1Cc1ccc(-c2ccccc2-c2nnn[nH]2)cc1 (stereo unspecified) [CANDESARTAN CILEXETIL] | no drug-induced liver injury reported | drug-induced liver injury reported | drug-induced liver injury reported |  |  |  |
| C=C(C)[C@@H]1CCC(C)=C[C@H]1c1c(O)cc(CCCCC)cc1O [CANNABIDIOL] | no drug-induced liver injury reported | drug-induced liver injury reported | drug-induced liver injury reported |  |  |  |
| CCCCCOC(=O)Nc1nc(=O)n([C@@H]2O[C@H](C)[C@@H](O)[C@H]2O)cc1F [CAPECITABINE] | no drug-induced liver injury reported | drug-induced liver injury reported | drug-induced liver injury reported |  |  |  |
| COc1cc(CNC(=O)CCCC/C=C/C(C)C)ccc1O [CAPSAICIN] | no drug-induced liver injury reported | drug-induced liver injury reported | drug-induced liver injury reported |  |  |  |
| C[C@H](CS)C(=O)N1CCC[C@H]1C(=O)O [CAPTOPRIL] | no drug-induced liver injury reported | drug-induced liver injury reported | drug-induced liver injury reported |  |  |  |
| C[N+](C)(C)CCOC(N)=O.[Cl-] [CARBACHOL] | no drug-induced liver injury reported | no drug-induced liver injury reported | drug-induced liver injury reported |  |  |  |
| NC(=O)N1c2ccccc2C=Cc2ccccc21 [CARBAMAZEPINE] | no drug-induced liver injury reported | drug-induced liver injury reported | drug-induced liver injury reported |  |  |  |
| CNC(=O)Oc1cccc2ccccc12 [CARBARIL] | no drug-induced liver injury reported | no drug-induced liver injury reported | drug-induced liver injury reported |  |  |  |
| CC1(C)S[C@@H]2[C@H](NC(=O)C(C(=O)[O-])c3ccccc3)C(=O)N2[C@H]1C(=O)[O-].[Na+].[Na+] (stereo partly specified) [CARBENICILLIN DISODIUM] | no drug-induced liver injury reported | drug-induced liver injury reported | no drug-induced liver injury reported |  |  |  |
| CC1(C)[C@@H](OC(=O)CCC(=O)O)CC[C@]2(C)[C@H]3C(=O)C=C4[C@@H]5C[C@@](C)(C(=O)O)CC[C@]5(C)CC[C@@]4(C)[C@]3(C)CC[C@@H]12 [CARBENOXOLONE] | no drug-induced liver injury reported | no drug-induced liver injury reported | drug-induced liver injury reported |  |  |  |
